# From PubChem BioAssay AID720589 (Broad Institute, 2013)
# Activity calls are given as the source filed them.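 The calls were made as follows: active = fitted curve drops below -35% activity at a concentration within twice the top valid tested dose; inconclusive = no clear call, values can overlap the other calls; inactive = signal rising instead of falling, among other cases.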
# Assay: ATP-based viability loss in HepG2 cells – cell-based, CellTiter-Glo luminescence, cherry-pick, set 3, cytotoxicity control, dose response (AID 720589)
# Settings: HepG2 viability, ATP luminescence (CellTiter-Glo), 72 h; at 0.011 µM; hits give low values; 0% = untreated, negative = ATP loss
row,Structure (SMILES),max activity
1,CC(C)(C)c1ccc(/C=N/Nc2ccc(C(=O)O)cc2)cc1,17.4% (inactive)
2,Cc1cccc(/C=N/Nc2ccc3ccccc3n2)c1,29% (inactive)
3,N#C[C@@H]1[C@H](c2ccc(C#Cc3ccc(F)cc3)cc2)[C@@H](CO)N1C(=O)Nc1ccc(F)cc1,-24.6% (inactive)
4,CC(=O)N1CCCC(c2cc(C(=O)Nc3ccccc3)no2)C1 (stereo unspecified),15.4% (inactive)
5,Nc1ccc(Oc2cccc(Oc3ccc(N)cc3)c2)cc1,11.2% (inactive)
6,C[C@@H]1CN([C@@H](C)CO)S(=O)(=O)c2ccc(C#Cc3ccncc3)cc2O[C@H]1CN(C)C(=O)C1CCOCC1,-28.4% (inactive)
7,COc1ccc(/C=N/Nc2ccc(C(=O)O)cc2)cc1Br,-16% (inactive)
8,COc1ccc2oc(C(=O)NCCc3ccccc3)c(C)c2c1,-16.8% (inactive)
9,COc1ccc(C(=O)OCC(=O)Nc2ccc(Cl)c(C(F)(F)F)c2)c(OC)c1OC,-15% (inactive)
10,COc1cc(C(c2c(C)[nH][nH]c2=O)c2c(C)[nH][nH]c2=O)ccc1OC(C)C,22.1% (inactive)

# Same assay, conditions: HepG2 viability, ATP luminescence (CellTiter-Glo), 72 h; at 0.035 µM; hits give low values; 0% = untreated, negative = ATP loss
row,Structure (SMILES),max activity
1,COc1ccc(S(=O)(=O)N2CC[C@@H]3[C@@H](CO)Nc4ccc(-c5ccc(C#N)cc5)cc4[C@@H]32)cc1,-30.2% (inactive)
2,O=C(CCCN1C(=O)/C(=C/c2ccccc2Cl)SC1=S)NNC(=O)c1ccc(Cl)cc1Cl,-21.5% (inactive)
3,COC(=O)C[C@@H]1CC[C@@H]2[C@H](COc3ccc(NC(=O)c4ccc(F)c(F)c4)cc3C(=O)N2C)O1,-21% (inactive)
4,COc1ccc(/C=C2\SC(=S)N(CCCC(=O)NNC(=O)c3ccccc3O)C2=O)cc1,-21.1% (inactive)
5,O=C(O)CN1C(=O)/C(=C\c2ccccc2OCc2ccc(Cl)cc2Cl)SC1=S,-18.9% (inactive)

# Same assay, conditions: HepG2 viability, ATP luminescence (CellTiter-Glo), 72 h; at 0.1 µM; hits give low values; 0% = untreated, negative = ATP loss
row,Structure (SMILES),max activity
1,C[C@H](CO)N1C[C@H](C)[C@H](CN(C)Cc2ccc(C(F)(F)F)cc2)Oc2c(NS(=O)(=O)c3ccc(Cl)cc3)cccc2C1=O,-20% (inactive)
2,COC(=O)C[C@H]1C=C[C@@H](NC(=O)Nc2ccc(C(F)(F)F)cc2)[C@H](CO)O1,-17.7% (inactive)
3,Cc1c(Cc2ccc3c(c2)OCO3)sc(NC(=O)C(C)(C)C)c1C#N,-26.7% (inactive)
4,CCOC(=O)C1CCCCN1C(=O)CCc1c(C)nc2cc(-c3ccccc3)nn2c1C (stereo unspecified),21.3% (inactive)
5,Cc1cc(C)cc(OCC(=O)OCC(=O)Nc2cc(S(=O)(=O)N3CCOCC3)ccc2C)c1,-15.3% (inactive)
6,CCCNC(=O)[C@@H]1[C@@H](CO)[C@@H]2Cn3c(ccc(-c4ccccc4)c3=O)[C@H]1N2C(=O)CC,-16.5% (inactive)
7,CCn1c(C)cc(C(=O)CN2C(=O)c3ccccc3S2(=O)=O)c1C,-11.5% (inactive)
8,CC(=O)c1ccc(NC(=O)c2noc3c2CCC3)cc1,-34.6% (inactive)
9,CCCNC(=O)N1[C@H](C#N)[C@H](c2ccc(C#Cc3ccc(F)cc3)cc2)[C@H]1CO,-28.6% (inactive)
10,CCC(C)Cn1c(O)cc2nn(-c3nc4ccccc4s3)c(=O)c-2c1C (stereo unspecified),-32.2% (inactive)

# Same assay, conditions: HepG2 viability, ATP luminescence (CellTiter-Glo), 72 h; at 0.3 µM; hits give low values; 0% = untreated, negative = ATP loss
row,Structure (SMILES),max activity
1,C[C@H]1CN([C@@H](C)CO)C(=O)c2cc(NS(=O)(=O)c3ccc(Cl)cc3)ccc2O[C@H]1CN(C)Cc1ccc(Cl)c(Cl)c1,-20.4% (inactive)
2,O=C(NC1CCCC1)C(c1ccccc1)n1c(CSCCOc2ccccc2)nc2ccccc21 (stereo unspecified),-34.7% (inactive)
3,COc1ccc(CN(C)c2ncnc3sccc23)c(OC)c1OC,-16.5% (inactive)
4,COc1cc(-c2cnc3c(NC=O)cc(-c4cccc(NC(C)=O)c4)cn23)cc(OC)c1OC,-32.8% (inactive)
5,Cc1ccccc1NC(=O)C(=Cc1ccc(C(=O)O)cc1)C(=O)Nc1ccccc1C,-13.1% (inactive)

# Same assay, conditions: HepG2 viability, ATP luminescence (CellTiter-Glo), 72 h; at 0.9 µM; hits give low values; 0% = untreated, negative = ATP loss
row,Structure (SMILES),max activity
1,Brc1ccc(CSc2nnc(-c3ccco3)o2)cc1,-28.4% (inactive)
2,CCc1ccc(Cn2ncc3c(C(=O)O)cc(C)nc32)cc1,-27.2% (inactive)
3,O=C(NCc1ccccn1)c1ccc(CNS(=O)(=O)c2cccc(Cl)c2)cc1,-24.4% (inactive)
4,O=C(Nc1ccc(NC(=O)c2cc3ccccc3o2)cc1)c1ccc2c(c1)OCCO2,-30.6% (inactive)

# Same assay, conditions: HepG2 viability, ATP luminescence (CellTiter-Glo), 72 h; at 2.85 µM; hits give low values; 0% = untreated, negative = ATP loss
row,Structure (SMILES),max activity
1,CCOC(=O)Cc1csc(NC(=S)NC(=O)c2ccc(C)cc2)n1,11.3% (inactive)
2,CCOc1ccc(-c2cc(CCCC(=O)NCc3ccc(C)cc3)no2)cc1,-24.4% (inactive)
3,O=C(C[C@@H]1C[C@H]2c3cc(NC(=O)CC4CC4)ccc3O[C@H]2[C@H](CO)O1)NCc1ccccc1F,-31.6% (inactive)
4,COCC(=O)Nc1ccc2c(c1)[C@@H]1C[C@@H](CC(=O)NCc3ccc(-c4ccccc4)cc3)O[C@@H](CO)[C@@H]1O2,-28% (inactive)
5,CC(Oc1cccc(Cl)c1)C(=O)NCCCCc1ccccc1 (stereo unspecified),18.7% (inactive)
6,Cc1cc(C)cc(C(=O)NC(=S)Nc2ccc(Cc3ccncc3)cc2)c1,-39.1% (inactive)
7,COc1cc(OC)cc(-c2cc3nc(C)c(CCC(=O)NCc4ccccc4)c(C)n3n2)c1,23.9% (inactive)
8,C[C@@H]1CN([C@H](C)CO)S(=O)(=O)c2ccc(C#CC3CC3)cc2O[C@@H]1CN(C)Cc1ccccc1F,-22% (inactive)
9,COc1ccc(Nc2oc(COc3ccccc3OC)nc2C#N)cc1,-51% (inactive)
10,Cc1ccsc1/C=N/Nc1cccc(C(=O)O)c1,-32.4% (inactive)
11,CC(C)NC(=O)N(C)C[C@@H]1Oc2cc(C#Cc3ccc(F)cc3)ccc2S(=O)(=O)N([C@H](C)CO)C[C@H]1C,-21.1% (inactive)
12,C/C=C/c1ccc(C2[C@@H]3CN(C(=O)Cc4ccccc4)C[C@H]2N3)cc1 (stereo partly specified),-29.1% (inactive)
13,Cc1ccc2c(c1)C(=O)N1[C@H]3c4cc(Br)ccc4OC[C@@H]3[C@H](c3ccccc3)[C@]1(C)C(=O)N2,-19.3% (inactive)
14,COC(=O)C[C@@H]1CC[C@@H]2[C@@H](COc3ccc(NC(=O)Cc4cccs4)cc3C(=O)N2C)O1,-25% (inactive)
15,C[C@@H]1CN([C@@H](C)CO)C(=O)Cc2cc(NC(=O)Nc3ccc(C(F)(F)F)cc3)ccc2O[C@@H]1CN(C)Cc1ccc(C(=O)Nc2ccccc2N)cc1,-33% (inactive)

# Same assay, conditions: HepG2 viability, ATP luminescence (CellTiter-Glo), 72 h; at 8 µM; hits give low values; 0% = untreated, negative = ATP loss
row,Structure (SMILES),max activity
1,CN(c1ccc(NC(=O)CCc2c[nH]c3ccccc23)cc1)c1ccccn1,-31.2% (inactive)
2,CCOc1cc2[nH]c(=S)n(Cc3ccc(C(=O)N4CCN(C)CC4)cc3)c(=O)c2cc1OCC,-29.8% (inactive)
3,Nc1nc2cc3c(cc2cc1C(=O)NCCc1c[nH]c2ccccc12)OCO3,-32.5% (inactive)
4,O=C(Nc1cccc(Oc2ccc3c(c2)C(=O)NC3=O)c1)c1cccs1,-36% (inactive)
5,C[C@@H]1CN([C@@H](C)CO)C(=O)c2cccc(NC(=O)Nc3cccc4ccccc34)c2O[C@@H]1CN(C)Cc1ccc(C(=O)Nc2ccccc2N)cc1,-36.9% (inactive)
6,Cc1ccc(-c2ccc3c(c2)O[C@@H](CN(C)C(=O)Nc2ccc(F)cc2)[C@H](C)CN([C@@H](C)CO)S3(=O)=O)cc1,-53.8% (inactive)

# Same assay, conditions: HepG2 viability, ATP luminescence (CellTiter-Glo), 72 h; at 23.5 µM; hits give low values; 0% = untreated, negative = ATP loss
row,Structure (SMILES),max activity
1,CCCNC(=O)N1[C@H](C#N)[C@H](c2ccc(C#Cc3cccc(F)c3)cc2)[C@H]1CO,22.8% (inactive)
2,C[C@H]1CN([C@@H](C)CO)C(=O)Cc2cc(NC(=O)CCCCCC(=O)Nc3ccccc3N)ccc2O[C@H]1CN(C)Cc1ccc(Cl)c(Cl)c1,-29.2% (inactive)
3,C[C@H](CO)N1C[C@H](C)[C@H](CN(C)Cc2ccccc2)Oc2ccc(NC(=O)CCCCCC(=O)Nc3ccccc3N)cc2CC1=O,-23.9% (inactive)

# Same assay, conditions: HepG2 viability, ATP luminescence (CellTiter-Glo), 72 h; at 26 µM; hits give low values; 0% = untreated, negative = ATP loss
row,Structure (SMILES),max activity
1,CCN(CC)c1ccc(C2NC(=O)c3ccccc3N2)cc1 (stereo unspecified),-26.4% (inactive)
2,Oc1c(Cl)cc(Cl)c2cccnc12,-31.8% (inactive)
3,COc1ccc(S(=O)(=O)N=Nc2c(O)[nH]c3ccccc23)cc1,-27.4% (inactive)
4,CCOc1ccc(C(c2c(NC(=O)c3ccccc3)sc(C)c2C)N2CCN(CCO)CC2)cc1 (stereo unspecified),-11.9% (inactive)
5,COC(=O)CC1(C(=O)OC)Oc2ccc(Br)cc2C(=O)N1c1cccc(Cl)c1Cl (stereo unspecified),-23% (inactive)
6,C[C@@H]1CN([C@@H](C)CO)C(=O)Cc2cc(NC(=O)Cn3cnnn3)ccc2O[C@@H]1CN(C)Cc1ccc(Oc2ccccc2)cc1,25% (inactive)
7,O=C(NCc1cccnc1)C1Cc2c(-c3ccc(Cl)cc3)ccnc2O1 (stereo unspecified),-18.3% (inactive)
8,O=c1cc(-c2ccccc2)oc2ccc3ccccc3c12,-21.9% (inactive)
9,O=C(CNC(c1ccccc1)c1ccccc1)Nc1ccccc1-c1ccccc1,10.7% (inactive)
10,CC(NC(=O)c1ccco1)c1nc(-c2ccc(C(C)(C)C)cc2)no1 (stereo unspecified),-24.1% (inactive)
11,CCNC(=O)[C@@H]1[C@@H](CO)[C@@H]2Cn3c(ccc(C4=CCCCC4)c3=O)[C@H]1N2CC,-22.3% (inactive)
12,C=CCOc1ccccc1C(=O)/C=C1/C(=O)Nc2ccccc21,-31.5% (inactive)
13,O=C(O)c1cccc(N/N=C/c2cccs2)c1,-13.2% (inactive)
14,Cc1ccc2nc(-c3ccccc3)nn2c1,-45.7% (inactive)
15,CCCC[C@@H]1Cc2[nH][nH]c(=O)c2[C@H](c2ccc3ccccc3c2)O1,22% (inactive)
16,C(=Cc1cnc2ccccc2n1)c1ccc2c(c1)OCO2,-50.5% (inactive)
17,CCCn1nnc(NC(=S)NC(=O)C(C)(C)C)n1,-35.2% (inactive)
18,CCCCCCCCn1c2c(c(=N)c3c1CCC3)CCCC2,-46.7% (inactive)
